The text below walks through data of PMC4962987, “Identification of Chalcones as Fasciola hepatica Cathepsin L Inhibitors Using a Comprehensive Experimental and Computational Approach” (PLoS Neglected Tropical Diseases, 2016).

The target of experiment [1] is T1, FhCL3 (Fasciola hepatica, UniProt B3TM67).
T1 construct: gene CL3
T1 sequence (B3TM67 88-306): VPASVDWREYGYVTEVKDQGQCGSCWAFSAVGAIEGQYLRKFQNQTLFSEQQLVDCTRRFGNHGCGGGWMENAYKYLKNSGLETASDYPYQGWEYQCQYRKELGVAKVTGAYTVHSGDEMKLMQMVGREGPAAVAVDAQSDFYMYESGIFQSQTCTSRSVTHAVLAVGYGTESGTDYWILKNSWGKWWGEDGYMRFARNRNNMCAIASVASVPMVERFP
Briefly: biochemical. The arrangement: fluorogenic peptide-AMC hydrolysis (Z-VLK-AMC FhCL1, Tos-GPR-AMC FhCL3), initial rates, 5 min preincubation. The conditions noted are these: read-out: % inh. FhCL3. The method, then:
(§1) A 10 mM stock of each evaluated compound was prepared in dimethylsulfoxide (DMSO). Enzyme activity assays were conducted to evaluate the inhibitory capacity of the different compounds. FhCL1 and FhCL3 were used at nanomolar concentrations to measure initial rates during the first 10 min of the assay and compounds were tested at a moderate fixed dose of 10 μM. Briefly, each enzyme and compound were preincubated 5 minutes in a 96-well plate in 0.1M sodium phosphate buffer pH 6, 1 mM DTT and 1 mM EDTA at room temperature. The reaction was initiated by the addition of 20 μM of substrate, a synthetic peptide conjugated to the fluorophore 7-amino-4-methylcoumarin (AMC). Enzyme activity was measured by the increase in AMC fluorescence as peptide substrates were hydrolyzed (Z-VLK-AMC for FhCL1 and Tos-GPR-AMC for FhCL3) at an excitation wavelength of 340 nm and emission wavelength of 440 nm using a spectrofluorometer (Varioskan Thermo). Enzyme activity was expressed as RFU/s (relative fluorescence units of AMC released per unit of time). Each compound was tested in duplicate. A progress curve without enzyme was performed to control for non-catalyzed reactions between substrates and inhibitors and a spectrum from 300 to 450 nm wavelength was done for each inhibitor to verify that none of the compounds has optical activity in the measurement range. The percentage of enzyme inhibition was calculated as: 100 - (vi/vo) x 100, where vi and vo correspond to the initial rate of AMC fluorescence increase (RFU/s) with and without inhibitor, respectively. We evaluated forty flavonoids from three structural clusters of our own chemistry library as inhibitors of FhCL1 and FhCL3. Cluster I contained twenty-six chalcones modified in ring B (C1-C26, Fig 1A), cluster II contained naphtolchalcone derivatives (C27-C35, Fig 1B) and cluster III was composed of flavones modified in ring B (C36-C40, Fig 1B). Initially, we screened the compounds at a low concentration of 10 μM measuring initial rates during the first 10 min, finding activities ranging from 0% to 75% enzyme inhibition (Fig 1).

Experiment [2] deals with T2, FhCL1 (Fasciola hepatica, UniProt Q7JNQ9).
T2 construct: gene CL1
T2 sequence (Q7JNQ9 108-326): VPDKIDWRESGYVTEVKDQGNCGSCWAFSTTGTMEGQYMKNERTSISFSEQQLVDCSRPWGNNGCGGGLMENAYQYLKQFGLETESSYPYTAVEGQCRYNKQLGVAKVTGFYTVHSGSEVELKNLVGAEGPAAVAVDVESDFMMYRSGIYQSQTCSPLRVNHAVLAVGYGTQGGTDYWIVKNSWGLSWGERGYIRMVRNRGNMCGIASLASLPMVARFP
The experiment in a line: biochemical. The arrangement: fluorogenic peptide-AMC hydrolysis (Z-VLK-AMC FhCL1, Tos-GPR-AMC FhCL3), initial rates, 5 min preincubation. The method, then:
as §1

For experiment [3], the target named is T3, FhCL1 (Fasciola hepatica, UniProt Q7JNQ9).
T3 construct: gene CL1
The experiment in a line: fluorogenic Z-VLK-AMC enzyme assay, % inhibition at […]. In kind it is biochemical.

In experiment [4] the target is T4, FhCL3 (Fasciola hepatica, UniProt B3TM67).
T4 construct: gene CL3
Briefly: biochemical. On the set-up: fluorogenic peptide-AMC hydrolysis (Z-VLK-AMC FhCL1, Tos-GPR-AMC FhCL3), initial rates, 5 min preincubation. The conditions noted are these: read-out: % inh. FhCL3. The method, then:
as §1
This is another data set of the same source.

Experiment [5] addresses T3, FhCL1. Briefly: biochemical. On the set-up: fluorogenic peptide-AMC hydrolysis (Z-VLK-AMC FhCL1, Tos-GPR-AMC FhCL3), initial rates, 5 min preincubation. The method, then: as §1
The source holds these as a separate data set.

Experiment [6] concerns the target T4, FhCL3. The experiment in a line: fluorogenic Tos-GPR-AMC enzyme assay, % inhibition at […]. It is filed as biochemical.

Turning to `O=c1cc(-c2ccc(Br)cc2)oc2ccccc12` [C38], the inhibition at 10 µM at FhCL3 [1] came to 19 ± 3%; at FhCL1 [2], 21 ± 10%.
In the case of `O=C(/C=C/c1ccc(Cl)cc1)c1ccccc1O` [C10], the inhibition at 10 µM against FhCL1 [3] turned out to be 63%.
For `O=C(/C=C/c1ccccc1)c1ccc2ccccc2c1` [C27], the values for the inhibition at 10 µM at FhCL1 [3] and on FhCL3 [1] were 65% and 13 ± 4%, respectively.
As to `O=C(/C=C/c1ccc2ccccc2c1)c1ccc2ccccc2c1O` [C33], the inhibition at 10 µM on FhCL3 [1] is 29 ± 5%; on FhCL1 [2], 65 ± 6%.
Take `COc1ccc(-c2cc(=O)c3ccccc3o2)cc1` [C39]: the results for the inhibition at 10 µM on FhCL3 [1] and at FhCL1 [2] were 0% and 20 ± 7%, respectively.
For `O=C(/C=C/c1ccc2ccccc2c1)c1ccccc1` [C30], in that order: 38 ± 7% and 62 ± 2%.
For `O=c1cc(-c2ccc(Cl)cc2)oc2ccccc12` [C37], in that order: 17 ± 1% and 0%.
In the case of `O=C(/C=C/c1ccccn1)c1ccccc1O` [C22], the inhibition at 10 µM at FhCL3 [1] came to 0%; on FhCL1 [2] it was 54 ± 7%.
For `O=C(/C=C/c1ccc2ccccc2c1)c1ccccc1O` [C31], in that order: 41 ± 5% and 61 ± 2%.
`O=c1c(O)c(-c2ccc(O)c(O)c2)oc2cc(O)cc(O)c12` [C40, Quercetin]: the figures for the inhibition at 10 µM on FhCL3 [4] and on FhCL1 [5] were 8 ± 1% and 15 ± 8%, respectively.
Regarding `O=C(/C=C/c1cccc2ccccc12)c1ccccc1O` [C32], the figures for the inhibition at 10 µM on FhCL3 [1] and at FhCL1 [2] were 32 ± 8% and 42 ± 6%, respectively.
The like results for `O=C(/C=C/c1ccco1)c1ccccc1O` [C23] were, in that order, 4 ± 10% and 57 ± 8%.
For the compound `O=C(/C=C/c1ccc2ccccc2c1)c1c(O)ccc2ccccc12` [C35], the inhibition at 10 µM is more than 50% against FhCL1 [3], more than 50% against FhCL3 [6], 44 ± 6% on FhCL3 [1] and 67 ± 3% against FhCL1 [2].
Regarding `O=C(/C=C/c1cccc2ccccc12)c1c(O)ccc2ccccc12` [C34], the inhibition at 10 µM worked out at 65 ± 6% at FhCL3 [4] and 75 ± 4% against FhCL1 [5].
Regarding `O=C(/C=C/c1cccs1)c1ccccc1O` [C24], the inhibition at 10 µM at FhCL3 [1] was 9 ± 11%; against FhCL1 [2], 52 ± 5%.
In the case of `O=C(/C=C/c1cccc2ccccc12)c1ccccc1` [C28], the inhibition at 10 µM on FhCL3 [1] came to 39 ± 5%; against FhCL1 [2], 38 ± 3%.
For `O=c1cc(-c2ccccc2)oc2ccccc12` [C36], in that order: 8 ± 4% and 5 ± 1%.
For `O=C(CC(CC(=O)c1ccccc1)c1cccc2ccccc12)c1ccccc1` [C29], in that order: 27 ± 2% and 17 ± 9%.
